Measured values: PubChem BioAssay AID2060327 (Molecular Pharmacology Branch, DTP, NCI, 2025)

Test system: PC-3 multi-cell spheroids, viability
Test: Anticancer human tumor PC-3 cell line growth inhibition [IpAb];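 further: spheroids exposed to compounds for 7 days before readout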;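 on viability, T/C: 100% = DMSO vehicle control wells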
Conditions: for IC50: curve of first compound; for viability, T/C: stronger effect = lower value
Summary of the method: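 Combinations with ipatasertib or abemaciclib were tested on tumour spheroids holding HUVEC (25%) and MSC (15%) alongside 60% malignant cells. Top concentration was at or near clinical Cmax (10 microM if undefined), descending in half-log steps.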

[1] = second compound 0.01 µM, first compound 0.00316 µM
[2] = second compound 0.01 µM, first compound 0.01 µM
[3] = second compound 0.01 µM, first compound 0.0316 µM
[4] = second compound 0.01 µM, first compound 0.1 µM
[5] = second compound 0.0316 µM, first compound 0.00316 µM
[6] = second compound 0.0316 µM, first compound 0.01 µM
[7] = second compound 0.0316 µM, first compound 0.0316 µM
[8] = second compound 0.0316 µM, first compound 0.1 µM
[9] = second compound 0.1 µM, first compound 0.00316 µM
[10] = second compound 0.1 µM, first compound 0.01 µM
[11] = second compound 0.1 µM, first compound 0.0316 µM
[12] = second compound 0.1 µM, first compound 0.1 µM
[13] = second compound 0.316 µM, first compound 0.00316 µM
[14] = second compound 0.316 µM, first compound 0.01 µM
[15] = second compound 0.316 µM, first compound 0.0316 µM
[16] = second compound 0.316 µM, first compound 0.1 µM
[17] = second compound 1 µM, first compound 0.00316 µM
[18] = second compound 1 µM, first compound 0.01 µM
[19] = second compound 1 µM, first compound 0.0316 µM
[20] = second compound 1 µM, first compound 0.1 µM
[21] = second compound 0.01 µM, first compound 0.316 µM
[22] = second compound 0.01 µM, first compound 1 µM
[23] = second compound 0.01 µM, first compound 3.16 µM
[24] = second compound 0.01 µM, first compound 10 µM
[25] = second compound 0.0316 µM, first compound 0.316 µM
[26] = second compound 0.0316 µM, first compound 1 µM
[27] = second compound 0.0316 µM, first compound 3.16 µM
[28] = second compound 0.0316 µM, first compound 10 µM
[29] = second compound 0.1 µM, first compound 0.316 µM
[30] = second compound 0.1 µM, first compound 1 µM
[31] = second compound 0.1 µM, first compound 3.16 µM
[32] = second compound 0.1 µM, first compound 10 µM
[33] = second compound 0.316 µM, first compound 0.316 µM
[34] = second compound 0.316 µM, first compound 1 µM
[35] = second compound 0.316 µM, first compound 3.16 µM
[36] = second compound 0.316 µM, first compound 10 µM
[37] = second compound 1 µM, first compound 0.316 µM
[38] = second compound 1 µM, first compound 1 µM
[39] = second compound 1 µM, first compound 3.16 µM
[40] = second compound 1 µM, first compound 10 µM

Compound	IC50 (second compound 0.01 µM) [nM]	IC50 (second compound 0.0316 µM) [nM]	IC50 (second compound 0.1 µM) [nM]	IC50 (second compound 0.316 µM) [nM]	IC50 (second compound 1 µM) [nM]	viability, T/C [3] [%]	viability, T/C [4] [%]	viability, T/C [7] [%]	viability, T/C [8] [%]	viability, T/C [11] [%]	viability, T/C [12] [%]	viability, T/C [15] [%]	viability, T/C [16] [%]	viability, T/C [19] [%]	viability, T/C [20] [%]	viability, T/C [21] [%]	viability, T/C [22] [%]	viability, T/C [25] [%]	viability, T/C [26] [%]	viability, T/C [29] [%]	further results
CC(C)n1nc(-c2ccc3oc(N)nc3c2)c2c(N)ncnc21 + CCN1CCN(Cc2ccc(Nc3ncc(F)c(-c4cc(F)c5nc(C)n(C(C)C)c5c4)n3)nc2)CC1	1.99	2.07	1.93	1.81	1.14	11	10	11.7	9.52	11.2	9.73	13.7	10.8	15.7	13.8	–	–	–	–	–	viability, T/C (second compound 0.01 µM, first compound 0.000316 µM): 81.9%; viability, T/C (second compound 0.01 µM, first compound 0.001 µM): 56.2%; viability, T/C [1]: 48.6%; viability, T/C [2]: 25.9%; viability, T/C (second compound 0.0316 µM, first compound 0.000316 µM): 55.2%; viability, T/C (second compound 0.0316 µM, first compound 0.001 µM): 55.7%; viability, T/C [5]: 47%; viability, T/C [6]: 18.6%; viability, T/C (second compound 0.1 µM, first compound 0.000316 µM): 59.1%; viability, T/C (second compound 0.1 µM, first compound 0.001 µM): 54.8%; viability, T/C [9]: 45.7%; viability, T/C [10]: 20%; viability, T/C (second compound 0.316 µM, first compound 0.000316 µM): 65.3%; viability, T/C (second compound 0.316 µM, first compound 0.001 µM): 61.8%; viability, T/C [13]: 39.2%; viability, T/C [14]: 20.1%; viability, T/C (second compound 1 µM, first compound 0.000316 µM): 55.4%; viability, T/C (second compound 1 µM, first compound 0.001 µM): 54.3%; viability, T/C [17]: 35.3%; viability, T/C [18]: 24.1%
CC1(C)CCC(CN2CCN(c3ccc(C(=O)NS(=O)(=O)c4ccc(NCC5CCOCC5)c([N+](=O)[O-])c4)c(Oc4cnc5[nH]ccc5c4)c3)CC2)=C(c2ccc(Cl)cc2)C1 + CCN1CCN(Cc2ccc(Nc3ncc(F)c(-c4cc(F)c5nc(C)n(C(C)C)c5c4)n3)nc2)CC1	5520	4540	4190	3980	1280	102	101	73.1	71.5	65.9	66	62.9	70.4	60.8	60.2	107	98.1	73.6	64.8	58.7	viability, T/C [23]: 93.2%; viability, T/C [24]: 4%; viability, T/C [27]: 71.4%; viability, T/C [28]: 4.41%; viability, T/C [30]: 64.2%; viability, T/C [31]: 70.1%; viability, T/C [32]: 3.35%; viability, T/C [33]: 66.3%; viability, T/C [34]: 61.7%; viability, T/C [35]: 61.9%; viability, T/C [36]: 3.28%; viability, T/C [37]: 54.3%; viability, T/C [38]: 51.8%; viability, T/C [39]: 41.5%; viability, T/C [40]: 4.98%
CCCS(=O)(=O)Nc1ccc(F)c(C(=O)c2c[nH]c3ncc(-c4ccc(Cl)cc4)cc23)c1F + CCN1CCN(Cc2ccc(Nc3ncc(F)c(-c4cc(F)c5nc(C)n(C(C)C)c5c4)n3)nc2)CC1	9020	6600	8630	4290	3410	92.5	96.8	65	79.1	57.3	57.4	64.7	64	61.5	58.5	104	99.5	71.7	77.8	68.6	viability, T/C [23]: 76.3%; viability, T/C [24]: 47.4%; viability, T/C [27]: 69.3%; viability, T/C [28]: 38.8%; viability, T/C [30]: 64.1%; viability, T/C [31]: 61.9%; viability, T/C [32]: 34.9%; viability, T/C [33]: 68%; viability, T/C [34]: 62.4%; viability, T/C [35]: 57.2%; viability, T/C [36]: 30.6%; viability, T/C [37]: 65.3%; viability, T/C [38]: 54.6%; viability, T/C [39]: 52.6%; viability, T/C [40]: 30.6%
COc1c(OCCCN2CCOCC2)ccc2c3n(c(=NC(=O)c4cnc(N)nc4)nc12)CCN3 + CCN1CCN(Cc2ccc(Nc3ncc(F)c(-c4cc(F)c5nc(C)n(C(C)C)c5c4)n3)nc2)CC1	94.5	90.8	86.5	78.3	80.6	140	47	142	43.2	140	37	111	34.5	104	40.4	13.3	8.39	11	8.82	12.8	viability, T/C [1]: 89.5%; viability, T/C [2]: 99.3%; viability, T/C [5]: 109%; viability, T/C [6]: 121%; viability, T/C [9]: 156%; viability, T/C [10]: 161%; viability, T/C [30]: 9.54%; viability, T/C [13]: 174%; viability, T/C [14]: 170%; viability, T/C [33]: 14.8%; viability, T/C [34]: 13.3%; viability, T/C [17]: 173%; viability, T/C [18]: 171%; viability, T/C [37]: 25%; viability, T/C [38]: 28.6%
Cc1nc(NC(=O)N2CCCC2C(N)=O)sc1-c1ccnc(C(C)(C)C(F)(F)F)c1 (stereo not given) + CCN1CCN(Cc2ccc(Nc3ncc(F)c(-c4cc(F)c5nc(C)n(C(C)C)c5c4)n3)nc2)CC1	1120	1380	489	523	172	68.2	48.2	54.5	52.7	49	55.5	59.4	63.2	62	53.6	50.6	51.2	58.6	53.9	51.2	viability, T/C [23]: 43.4%; viability, T/C [24]: 13.6%; viability, T/C [27]: 39.1%; viability, T/C [28]: 11.1%; viability, T/C [30]: 47.5%; viability, T/C [31]: 32.9%; viability, T/C [32]: 11.5%; viability, T/C [33]: 55.6%; viability, T/C [34]: 41.5%; viability, T/C [35]: 27.8%; viability, T/C [36]: 11.9%; viability, T/C [37]: 45.9%; viability, T/C [38]: 29.6%; viability, T/C [39]: 20.6%; viability, T/C [40]: 14.4%
